The text below walks through data of patent US20100331363A1, “TREATMENT OF MITOCHONDRIAL DISORDERS USING A FARNESYL TRANSFERASE INHIBITOR” (Link Medicine Corporation, priority 2008, published 2010).

The subject of one assay is INS1 cells. Nature of the assay: Palmitate-induced cell death of INS1 cells, propidium iodide flow cytometry. The class given is cell-based. To be noted: low dose; palmitate 18 hours, compound last 12 hours. The method, then:
LNK-754 was tested using a cell death assay to determine whether it had any effect on palmitate-induced cell death. For Example, one example of such an assay is as follows: INS1 cells were incubated in control medium or in medium containing palmitate for 18 hours and either rapamycin or LNK-754 at 0.25 nM, 0.5 nM, 1 nM, 10 nM, and 100 nM were added for the last 12 hours. At the end of the incubation, the cells were washed with PBS and stained with 1 μg/ml propidium iodide (e.g., Molecular Probes, P3566). FACS data analysis was performed and cell debris was excluded. […] At low dose, LNK-754 behaves similar to rapamycin.
(In general: In flow cytometry, cells or beads pass a laser one at a time.)

In another assay the target is FTase (Homo sapiens, UniProt P49354+P49356). Nature of the assay: Table 5A in vitro FTI (H-Ras, K-Ras protein) and Ki FTase. The class given is biochemical. From the text:
The selectivity of LNK-754 for FTase over GGTAse is shown below in Table 5A.

Another assay deals with isolated islets / INS1. Nature of the assay: Oxygen consumption, Seahorse XF24 bioenergetic assay. The class given is cell-based. To be noted: 1 nM. The method, then: Impaired mitochondrial function is shown by a decreased rate of oxygen consumption. […] The effect of LNK-754 at 1 nM and 10 nM doses on oxygen consumption was determined. Oxygen consumption in INS1 was measured using a Seahorse XF24 bioenergetic assay. Assays have been previously described in detail (See, Wu M, et al. Am J Physiol Cell Physiol 2007; 292:C125-36).

The test system of another assay is aged non-transgenic rats. Nature of the assay: Morris water maze in aged non-transgenic rats. Type of assay: in vivo, rat. To be noted: aged rats 22 months, 0.3 mg/kg and 0.9 mg/kg once every 24 hours. From the text:
Morris water maze (MWM) analysis of cognitive performance: In APP/PS1 transgenic animals, swimming behavior in a Morris Water Maze was videotaped and analyzed (Ethovision, Noldus, Wageningen, Netherlands). For mice, a place navigation test was used to locate the hidden platform in five blocks of three trials over three consecutive days. Each trial consists of a forced swim test of maximum 120 seconds, followed by 60 seconds of rest. The time each mouse needed for location of the platform was measured. For rats, a cued learning phase was first conducted, consisting of 3 trials per day for 5 days, using a visible platform of varying location. Each trial consisted of a forced swim test of maximum 60 seconds, followed by 10 minutes of rest. The time and path length each rat needed to locate the platform was measured.
In order to rule out the possibility that the rapid observed improvement in cognition described above arose from an alternative, transgene-independent mechanism, aged non-transgenic rats (22 months old) were treated with LNK-754-TS (0.3 mg/kg and 0.9 mg/kg, once every 24 hours) and their cognitive performance was measured by MWM and compared to that of younger rats (3 months old) of the same strain.

In the next assay the test system is APP/PS1 transgenic mice. Description: Morris water maze in APP/PS1 transgenic mice. Type of assay: in vivo, mouse. The conditions noted are these: 0.9 mg/kg once every 24 hours, vs vehicle. On the procedure: Animals and treatments: Male and female human WT alpha-synuclein over-expressing transgenic mice^32 at 6 months of age were given vehicle (10% beta-cyclodextrin) or LNK-754-TS (0.09, 0.9 and 9 mg/kg) per oral gavage twice daily for 3 months or animals at 7 months of age were given vehicle (2.5% beta-cyclodextrin) or LNK-754-TS (2 mg/kg) once every three days for 3 months. Male and female TAU transgenic mice expressing TAU441 bearing the missense mutations V337M^50 and R406W under the control of the murine Thy-1 promoter with a CB6xC57BL/6 background were 5 months old at the time when the oral treatment for three months with LNK-754-TS (0.9 and 0.09 mg/kg) as well as vehicle (2.5% beta-cyclodextrin) was started. Female human APP/PS1 (APP (London V7171)/PS1(A246E)) over-expressing transgenic mice were treated with LNK-754-TS (0.9 mg/kg) or vehicle (2.5% beta-cyclodextrin) for 2 months or 12 days.
Morris water maze (MWM) analysis of cognitive performance: In APP/PS1 transgenic animals, swimming behavior in a Morris Water Maze was videotaped and analyzed (Ethovision, Noldus, Wageningen, Netherlands). For mice, a place navigation test was used to locate the hidden platform in five blocks of three trials over three consecutive days. […] The time each mouse needed for location of the platform was measured. […] The time and path length each rat needed to locate the platform was measured. […]

Another assay has as its system LC3-II protein. Description: LC3-II protein level in SH-SY5Y cells with or without bafilomycin A1. The class given is cell-based, human. The method, then: The observed increase in LC3-positive autophagosomes could result, in principle, from either an increased flux through the autophagy pathway or decreased autophagosome degradation (Pankiv, S., et al. J Biol Chem 282, 24131-24145 (2007); Kamada, Y., et al. J Cell Biol 150, 1507-1513 (2000)). […] In order to ascertain an increase in autophagic flux, cells were co-treated with LNK-754-TS and an inhibitor of autophagosome-lysosome fusion, bafilomycin A1 (10 nM). Bafilomycin treatment alone caused a 100% increase in the amount of LC3-II, consistent with the fact that it inhibits autophagosome degradation (FIG. 8c).

Assay [1] concerns p70 S6 kinase (S6K) phosphorylation, mTOR pathway. Nature of the assay: p70 S6 kinase phosphorylation in SH-SY5Y cells. Type of assay: cell-based, human. To be noted: SH-SY5Y (FIG. 8f). From the text: Rapamycin is a well-characterized autophagy stimulator that acts through inhibition of mTOR, a kinase involved in nutrient signaling and regulation of cell growth and survival.

Entries after “also recorded” stand apart in the source; their conditions may differ. Like-named read-outs stand apart in the source and are kept apart here.

`C#Cc1cccc(-c2cc(=O)n(C)c3ccc([C@](O)(c4ccc(Cl)cc4)c4cncn4C)cc23)c1` [LNK-754, (R)-6-[(4-chlorophenyl)-hydroxyl-(1-methyl-1-H-imidazol-5-yl)-methyl]-4-(3-ethynylphenyl)-1-methyl-2-(1H)-quinonlinone]: the palmitate-induced cell death entry in the assay with INS1 cells is “protects INS1 cells from palmitate toxicity”. The Ki – broadly, the equilibrium dissociation constant of an inhibitor or competing ligand from its target – on FTase was less than 0.05 nM. In addition, the “GGTI/FTI (H-Ras)” value on FTase (ratio) is recorded as 580. On FTase (ratio), the “GGTI/FTI (K-Ras)” value worked out at 40.11. The IC50 at FTase (read-out: H-Ras protein CLVS in vitro FTI) stood at 0.9 nM; on FTase (read-out: K-Ras protein CVIM in vitro FTI), 72 nM. The “oxygen consumption (OCR)” value with isolated islets / INS1 is on record as “increases oxygen consumption”.
As to `C#Cc1cccc(-c2cc(=O)n(C)c3ccc([C@](O)(c4ccc(Cl)cc4)c4cncn4C)cc23)c1` [LNK-754-TS, (R)-6-[(4-chlorophenyl)-hydroxyl-(1-methyl-1-H-imidazol-5-yl)-methyl]-4-(3-ethynylphenyl)-1-methyl-2-(1H)-quinonlinone (2S, 3S)-dihydroxybutanedioate], in the assay with aged non-transgenic rats, the “cognitive performance, Morris water maze (place learning, probe tests)” value is listed as “no significant cognitive improvement”. Also, the “cognitive performance, Morris water maze” value in the assay with APP/PS1 transgenic mice (12 days) was “significant cognitive improvement”. Further, the “performance in the Morris water maze” value in the assay with APP/PS1 transgenic mice (two months) is listed as “performed significantly better; also recorded: significant cognitive improvement”. Besides, the “additional increase in LC3-II over bafilomycin alone” value in the assay with LC3-II protein (100 nM in combination with bafilomycin A1 10 nM) was 75%. In addition, the “accumulation of LC3-I or LC3-II protein” value with LC3-II protein (compound alone, without bafilomycin) is “did not cause accumulation”. Further, the “phosphorylation of p70 S6 kinase (S6K)” value in assay [1] is “did not inhibit phosphorylation”.
